We go through six compounds from publication PMC9065348 (Frontiers in Pharmacology, 2022).

Like-named read-outs stand apart in the source and are kept apart here.

For data set [1], the target named is T1, CYP2C9 (Homo sapiens, UniProt P11712).
T1 construct: respectively, were mixed with human liver microsomes; tissue In Vitro Technologies (Noble Park North, VIC, Australia); host or cells: human liver microsomes
Conditions: Human liver microsomes, cited from earlier work. Background: Microsomes from liver hold many membrane-bound enzymes, among them those of drug oxidation.

The target in data set [2] is CYP3A4 (Homo sapiens, UniProt P08684). As to conditions: Human liver microsomes, cited from earlier work.
Data set [3] has as its system hypertension rat model established by L-NAME. The data set can be described thus: Antihypertensive efficacy (tail artery blood pressure) in L-NAME hypertension rat model. Format: in vivo, Wistar rats. Here is the method: A total of 48 Wistar rats were treated with L-NAME (60 mg/kg·d^-1) intragastrically for 4 weeks ([[…] al., 2003]; [[…] et al., 2002]; [Ahad et al., 2020a]). Systolic blood pressure (SBP) ≥140 mmHg was considered to be a successful hypertension model and was used to maintain L-NAME treatment until animal death. The blood pressure measurement method was performed as described in previous literature studies and the blood pressure of each rat was determined by the average of 5 measurements by a non-invasive rat tail sphygmomanometer (BP-2006A, Beijing Softron Biotechnology Co., Ltd.) ([Gillis et al., 2020]; [Dias et al., 2021]). This experimental protocol was approved by the Animal Care and Use Committee of Shanghai University of Traditional Chinese Medicine. A total of 36 hypertensive rats and 6 normal rats were included in this experiment. […] A total of 6 normal rats were assigned to a blank group without any treatment. Following the treatment of the rats for 2 weeks, the blood pressure of their tail artery was measured.

Data set [4] has as its system hypertension rat model established with L-NAME. Details: method as in Ahad et al., 2020b. As to conditions: within 2 h following 10 mg kg^−1 LOS; rat model after 2 weeks L-NAME; ref Ahad et al., 2020b; cited from earlier work.
The subject of data set [5] is CYP2C9. The data set can be described thus: Western blot of rat liver tissue, CYP2C9 protein expression. Format: in vivo. Conditions: liver of hypertensive rats; comparison between all groups; p > 0.05. From the text:
The immunoreactive bands were detected by chemiluminescence.
In general terms: In western blotting, separated proteins are transferred to a membrane and probed.

For data set [6] the following is noted: cited from earlier work.
Data set [7] is described as follows: Pharmacokinetics of LOS and EXP3174 in non-hypertensive Wistar rats (LC-MS). Format: in vivo. As to conditions: Wistar rats without L-NAME. The method, then: All groups were treated for 2 weeks and the blood collection time and methods of serum management were the same as those mentioned above. The LOS and EXP3174 in rat serum were quantitatively determined by a validated LC-MS method. The LC-MS system contained a Q/Exactive Quadrupole/Electrostatic Field Track Well High Resolution Mass Spectrometer (Thermo Fisher Scientific, Waltham, MA, United States) and a Dionex Ultimate 3,000 High-pressure liquid chromatography (Dionex, Subsidiary, CA, United States) system equipped with an electro-spray ionization source. […] The mobile phase included 0.1% formic acid aqueous solution (C) and acetonitrile (D) at a flow rate of 0.3 ml/min. The proportion of phase B in the mobile phase was adjusted from 40 to 5% at 0–2 min, 5% at 2–4 min, 40% at 4–5 min. The parameters of mass spectrometry for each analyte were shown in Supplementary Figure S1 . The collected data were analyzed through Xcalibur 4.1 software. The serum drug concentration data in each sample were obtained by calculation. The pharmacokinetic parameters corresponding to each rat were calculated using the “non-compartmental model” of the “PK solution 2.0TM (Summit Research Services, United States)” pharmacokinetic software. The half-life (t 1/2 ), peak drug concentration (C max), peak time (T max), the area under the plasma concentration-time curve (AUC) from time zero to the time of the last measurable plasma concentration (AUC 0-t ), AUC from time zero to infinity (AUC 0-∞ ), mean residence time (MRT), clearance (CL), apparent volume of distribution (V d ), and relative bioavailability (Frel) were calculated.

The nature of data set [8]: Pharmacokinetics of LOS and EXP3174 in the hypertension rat model (LC-MS). Format: in vivo, Wistar rats. As to conditions: hypertensive rats (L-NAME); for AUC(0-inf) / AUC(0-t) / Cmax / MRT / Tmax / half-life: Wistar, rat, plasma, po, 10 mg/kg/day. The method, then:
All samples were centrifuged at 3,000 rpm for 10 min, and the upper plasma was collected for Liquid Chromatography Mass Spectrometry (LC-MS) analysis. The LOS and EXP3174 in rat serum were quantitatively determined by a validated LC-MS method. The LC-MS system contained a Q/Exactive Quadrupole/Electrostatic Field Track Well High Resolution Mass Spectrometer (Thermo Fisher Scientific, Waltham, MA, United States) and a Dionex Ultimate 3,000 High-pressure liquid chromatography (Dionex, Subsidiary, CA, United States) system equipped with an electro-spray ionization source. […] The mobile phase included 0.1% formic acid aqueous solution (C) and acetonitrile (D) at a flow rate of 0.3 ml/min. The proportion of phase B in the mobile phase was adjusted from 40 to 5% at 0-2 min, 5% at 2-4 min, 40% at 4-5 min. The parameters of mass spectrometry for each analyte were shown in Supplementary Figure S1 . The collected data were analyzed through Xcalibur 4.1 software. The serum drug concentration data in each sample were obtained by calculation. The pharmacokinetic parameters corresponding to each rat were calculated using the “non-compartmental model” of the “PK solution 2.0TM (Summit Research Services, United States)” pharmacokinetic software. The half-life (t 1/2 ), peak drug concentration (C max), peak time (T max), the area under the plasma concentration-time curve (AUC) from time zero to the time of the last measurable plasma concentration (AUC 0-t ), AUC from time zero to infinity (AUC 0-∞ ), mean residence time (MRT), clearance (CL), apparent volume of distribution (V d ), and relative bioavailability (Frel) were calculated.

[9] abbreviates: 4 weeks of L-NAME 60 mg/kg/d intragastric, model group.
Setting [10] is: 6 weeks of continuous L-NAME, model group.
Setting [11] is: vs model group, 2 weeks treatment, SMI 6 ml/kg/d tail vein (SMI-H), LOS 10 mg/kg/d intragastric.
[12] abbreviates: LOS 10 mg/kg/d ig + SMI 6 ml/kg/d tail vein (BLANK + SMI-H+LOS group).
The mark [13] stands for this setting: LOS 10 mg/kg/d ig alone (BLANK + LOS group).
Where [14] appears, read: rat, serum, po, LOS 10 mg/kg/d ig alone (BLANK + LOS group).
[15] abbreviates: LOS 10 mg/kg/d ig + SMI 2 ml/kg/d tail vein (SMI-L+LOS group).
Where [16] appears, read: LOS 10 mg/kg/d ig + SMI 4 ml/kg/d tail vein (SMI-M+LOS group).
The mark [17] stands for this setting: LOS 10 mg/kg/d ig + SMI 6 ml/kg/d tail vein (SMI-H+LOS group).
The mark [18] stands for this setting: LOS 10 mg/kg/d ig alone (LOS group).

Chain of CYP3A4 (P08684 whole entry): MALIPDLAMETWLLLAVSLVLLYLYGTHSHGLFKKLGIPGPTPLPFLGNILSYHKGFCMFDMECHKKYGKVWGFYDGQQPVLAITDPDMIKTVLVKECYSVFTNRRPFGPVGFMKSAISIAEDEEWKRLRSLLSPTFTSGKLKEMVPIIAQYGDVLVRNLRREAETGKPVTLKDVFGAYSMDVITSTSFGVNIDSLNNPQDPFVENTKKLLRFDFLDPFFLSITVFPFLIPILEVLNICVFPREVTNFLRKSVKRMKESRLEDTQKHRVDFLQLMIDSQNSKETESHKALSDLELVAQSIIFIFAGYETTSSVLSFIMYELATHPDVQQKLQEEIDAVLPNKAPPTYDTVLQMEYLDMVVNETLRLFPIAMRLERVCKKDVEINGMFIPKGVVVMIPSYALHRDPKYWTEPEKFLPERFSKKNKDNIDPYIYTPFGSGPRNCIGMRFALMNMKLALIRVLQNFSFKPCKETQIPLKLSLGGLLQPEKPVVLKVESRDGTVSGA
T1 sequence (P11712 whole entry): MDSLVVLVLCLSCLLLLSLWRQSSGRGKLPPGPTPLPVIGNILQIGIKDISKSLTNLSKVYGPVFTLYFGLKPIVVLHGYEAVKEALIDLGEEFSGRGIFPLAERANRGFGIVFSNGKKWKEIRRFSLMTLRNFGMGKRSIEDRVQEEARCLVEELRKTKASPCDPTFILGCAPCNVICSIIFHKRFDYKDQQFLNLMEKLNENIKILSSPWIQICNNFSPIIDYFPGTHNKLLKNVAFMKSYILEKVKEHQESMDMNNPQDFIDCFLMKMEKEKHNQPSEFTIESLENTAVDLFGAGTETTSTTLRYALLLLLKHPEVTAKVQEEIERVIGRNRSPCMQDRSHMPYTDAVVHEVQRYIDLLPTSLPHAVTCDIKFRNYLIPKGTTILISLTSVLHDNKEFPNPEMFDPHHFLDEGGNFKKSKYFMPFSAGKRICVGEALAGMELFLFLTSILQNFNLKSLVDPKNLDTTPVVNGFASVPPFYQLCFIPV

Take `CC(C)=CCC[C@](C)(O[C@@H]1O[C@H](CO[C@@H]2O[C@H](CO)[C@@H](O)[C@H](O)[C@H]2O)[C@@H](O)[C@H](O)[C@H]1O)[C@H]1CC[C@]2(C)[C@@H]1[C@H](O)C[C@@H]1[C@@]3(C)CC[C@H](O[C@@H]4O[C@H](CO)[C@@H](O)[C@H](O)[C@H]4O[C@@H]4O[C@H](CO)[C@@H](O)[C@H](O)[C@H]4O)C(C)(C)[C@@H]3CC[C@]12C` [Ginsenoside Rb1]: the “Effects on CYP2C9” value in data set [1] (ref Hao et al. (2008)) was “Inhibition”; in data set [1] (ref He and Edeki, (2004)), “Inhibition”. Besides, the “Effects on CYP3A4” value in data set [2] (ref Hao et al. (2008)) is given as “Inhibition”; in data set [2] (ref He and Edeki, (2004)), “Inhibition”.
Turning to `COC(=O)[C@@H](N)CCCNC(N)=N[N+](=O)[O-]` [L-NAME, N (omega)-nitro-L-arginine methyl ester], in data set [3] (setting [9]), the “increase in DBP” value is 34.83 ± 8.82 mmHg, the “increase in MAP” value is 36.00 ± 6.10 mmHg and the “increase in SBP” value came to 37.83 ± 8.52 mmHg. Also, in data set [3] (setting [10]), the “average increase in DBP” value worked out at 42.33 ± 15.34 mmHg, the “average increase in MAP” value worked out at 46.00 ± 13.11 mmHg and the “average increase in SBP” value is given as 50.50 ± 6.09 mmHg.
In general, AUC(0-inf) refers to total exposure, with the tail of the curve extrapolated. As a reminder, the AUC(0-t) is the area under the concentration-time curve up to a stated or last time point. One may read the Cmax as the highest concentration seen after dosing. As a reminder, the MRT is a mean duration of stay, worked out from the concentration-time curve. One may read the Tmax as the time at which the peak concentration occurs. Broadly, the half-life is the time in which the quantity being followed falls by half. Take `CCCCc1nc(Cl)c(CO)n1Cc1ccc(-c2ccccc2-c2nn[nH]n2)cc1` [LOS, losartan potassium]: in data set [3] (setting [11]), the “decrease in DBP” value is given as 12.14%, the “decrease in MAP” value stood at 11.92% and the “decrease in SBP” value is on record as 6.32%. The “decrease in SBP” value in data set [4] was 14.7%. Besides, the CYP2C9 expression levels entry in data set [5] is listed as “no significant differences”. Besides, in data set [6] (with Ginkgo leaf tablets, ref Dong et al., 2018), the “increase of AUC 0-t of LOS” value is recorded as 70%. Also, in data set [6] (with Glimepirea, ref Chen et al., 2015), the “increase of AUC 0-t of LOS” value was 11.18%. For the same compound, in data set [6] (with licochalcon A, ref Choi et al., 2013), the “increase of AUC of LOS” value is on record as 33.38%. In data set [7] (setting [12]), the CL was 5,327.27 ± 1,010.94 ml/h/kg and the Vd is 67,493.75 ± 17,745.97 ml/kg. Besides, in data set [7] (setting [13]), the CL is on record as 10,392.48 ± 1,296.50 ml/h/kg and the Vd is listed as 90,573.23 ± 13,394.06 ml/kg. In addition, in data set [7] (setting [14]), the total exposure AUC(0-inf) was 975 ± 121 ng·h/mL, the AUC(0-t) worked out at 911 ± 115 ng·h/mL, the Cmax worked out at 108 ± 6.26 ng/mL and the MRT was 8.6 ± 0.54 h. Besides, in data set [7] (setting [14]), the time of peak concentration (Tmax) is 1.67 ± 0.52 h and the half-life is 6.03 ± 0.19 h. In data set [8] (setting [15]), the total exposure AUC(0-inf) is 1210 ng·h/mL, the exposure AUC(0-t) is 1110 ng·h/mL, the maximum concentration (Cmax) is 125 ± 53.6 ng/mL and the MRT was determined as 8.54 ± 1.8 h. In data set [8] (setting [15]), the Tmax turned out to be 2.2 ± 0.84 h, the half-life is 6.74 ± 0.64 h, the CL is on record as 27,497.47 ± 14,702.73 ml/h/kg and the Vd is on record as 264,405.76 ± 142,122.69 ml/kg. Further, in data set [8] (setting [16]), the AUC(0-inf) came to 1430 ng·h/mL, the exposure AUC(0-t) was 1250 ng·h/mL, the Cmax came to 132 ± 35 ng/mL and the mean residence time (MRT) was 11.3 ± 2.22 h. Further, in data set [8] (setting [16]), the Tmax turned out to be 1.5 ± 0.55 h, the half-life is 8.41 ± 1.43 h, the CL is recorded as 17,964.40 ± 3,185.66 ml/h/kg and the Vd is 217,016.60 ± 45,076.20 ml/kg. In data set [8] (setting [17]), the AUC(0-inf) amounted to 1420 ng·h/mL, the area under the curve AUC(0-t) was found to be 1240 ng·h/mL, the Cmax was 156 ± 64.1 ng/mL and the MRT is 12.1 ± 1.02 h. For the same compound, in data set [8] (setting [17]), the Tmax was 2.33 ± 0.52 h, the half-life was 9.92 ± 0.96 h, the CL is given as 19,127.96 ± 5,549.27 ml/h/kg and the Vd is 277,463.55 ± 98,140.99 ml/kg. In data set [8] (setting [18]), this compound registered an AUC(0-inf) of 841 ± 232 ng·h/mL, an AUC(0-t) of 787 ± 213 ng·h/mL, a maximum concentration (Cmax) of 112 ± 41.7 ng/mL and a mean residence time (MRT) of 8.18 ± 0.89 h. In data set [8] (setting [18]), the Tmax was determined as 2 ± 0.89 h, the half-life is 6.19 ± 0.43 h, the CL is 32,042.39 ± 10,551.59 ml/h/kg and the Vd is reported as 282,441.65 ± 73,729.85 ml/kg. In data set [8] (SMI-H + LOS group (SMI 6 ml/kg/d)), the “increase of AUC 0-t compared with LOS group” value was found to be 58.1%.
For the compound `CC(C)=CCC[C@](C)(O[C@@H]1O[C@H](CO)[C@@H](O)[C@H](O)[C@H]1O)[C@H]1CC[C@]2(C)[C@@H]1[C@H](O)C[C@@H]1[C@@]3(C)CC[C@H](O)C(C)(C)[C@@H]3[C@@H](O[C@@H]3O[C@H](CO)[C@@H](O)[C@H](O)[C@H]3O[C@@H]3O[C@@H](C)[C@H](O)[C@@H](O)[C@H]3O)C[C@]12C` [Re, Ginsenoside Re], the “Effects on CYP2C9” value in data set [1] (ref Hao et al. (2008)) is “Inhibition”. The “Effects on CYP3A4” value in data set [2] (ref Hao et al. (2008)) is “Inhibition”.
Take `CC(C)=CCC[C@](C)(O[C@@H]1O[C@H](CO)[C@@H](O)[C@H](O)[C@H]1O)[C@H]1CC[C@]2(C)[C@@H]1[C@H](O)C[C@@H]1[C@@]3(C)CC[C@H](O)C(C)(C)[C@@H]3[C@@H](O[C@@H]3O[C@H](CO)[C@@H](O)[C@H](O)[C@H]3O)C[C@]12C` [Rg1, Ginsenoside Rg1]: the “Effects on CYP2C9” value in data set [1] (ref Hao et al. (2008)) was “Inhibition”. Also, the “Effects on CYP3A4” value in data set [2] (ref Hao et al. (2008)) was “Inhibition”.
For `COc1cc2c(c(OC)c1OC)-c1c(cc(OC)c(OC)c1OC)C[C@](C)(O)[C@@H](C)C2` [schizandrin], the “Effects on CYP3A4” value in data set [2] (ref Cao et al. (2009)) is on record as “Inhibition”.
